Assays:
Format in all cases: functional
OVCAR-3 = assay: Anticancer activity against human OVCAR-3 cells assessed cell growth at 10 uM after 48 hrs by sulforhodamine B assay relative to control
IGROV-1 = assay: Anticancer activity against human IGROV1 cells assessed cell growth at 10 uM after 48 hrs by sulforhodamine B assay relative to control
NCI-H460 = assay: Anticancer activity against human NCI-H460 cells assessed cell growth at 10 uM after 48 hrs by sulforhodamine B assay relative to control
SNB-75 = assay: Anticancer activity against human SNB75 cells assessed cell growth at 10 uM after 48 hrs by sulforhodamine B assay relative to control
MCF7 = assay: Anticancer activity against human MCF7 cells assessed cell growth at 10 uM after 48 hrs by sulforhodamine B assay relative to control
M14 = assay: Anticancer activity against human M14 cells assessed cell growth at 10 uM after 48 hrs by sulforhodamine B assay relative to control
LOX IMVI = assay: Anticancer activity against human LOXIMVI cells assessed cell growth at 10 uM after 48 hrs by sulforhodamine B assay relative to control
BT-549 = assay: Anticancer activity against human BT549 cells assessed cell growth at 10 uM after 48 hrs by sulforhodamine B assay relative to control
SF-295 = assay: Anticancer activity against human SF295 cells assessed cell growth at 10 uM after 48 hrs by sulforhodamine B assay relative to control
MDA-MB-435 = assay: Anticancer activity against human MDA-MB-435 cells assessed cell growth at 10 uM after 48 hrs by sulforhodamine B assay relative to control
HCT-116 = assay: Anticancer activity against human HCT116 cells assessed cell growth at 10 uM after 48 hrs by sulforhodamine B assay relative to control
SF-539 = assay: Anticancer activity against human SF539 cells assessed cell growth at 10 uM after 48 hrs by sulforhodamine B assay relative to control
TK-10 = assay: Anticancer activity against human TK10 cells assessed cell growth at 10 uM after 48 hrs by sulforhodamine B assay relative to control
HCT-15 = assay: Anticancer activity against human HCT15 cells assessed cell growth at 10 uM after 48 hrs by sulforhodamine B assay relative to control
UACC-257 = assay: Anticancer activity against human UACC257 cells assessed cell growth at 10 uM after 48 hrs by sulforhodamine B assay relative to control
NCI-H322M = assay: Anticancer activity against human NCI-H322M cells assessed cell growth at 10 uM after 48 hrs by sulforhodamine B assay relative to control
MDA-MB-231 = assay: Anticancer activity against human MDA-MB-231 cells assessed cell growth at 10 uM after 48 hrs by sulforhodamine B assay relative to control
NCI/ADR-RES = assay: Anticancer activity against human NCI/ADR-RES cells assessed cell growth at 10 uM after 48 hrs by sulforhodamine B assay relative to control
[1] = Anticancer activity against human RPMI8266 cells assessed cell growth at 10 uM after 48 hrs by sulforhodamine B assay relative to control
NCI-H226 = assay: Anticancer activity against human NCI-H226 cells assessed cell growth at 10 uM after 48 hrs by sulforhodamine B assay relative to control
HOP-62 = assay: Anticancer activity against human HOP62 cells assessed cell growth at 10 uM after 48 hrs by sulforhodamine B assay relative to control
OVCAR-8 = assay: Anticancer activity against human OVCAR8 cells assessed cell growth at 10 uM after 48 hrs by sulforhodamine B assay relative to control
HOP-92 = assay: Anticancer activity against human HOP92 cells assessed cell growth at 10 uM after 48 hrs by sulforhodamine B assay relative to control
SW-620 = assay: Anticancer activity against human SW620 cells assessed cell growth at 10 uM after 48 hrs by sulforhodamine B assay relative to control
T47D = assay: Anticancer activity against human T47D cells assessed cell growth at 10 uM after 48 hrs by sulforhodamine B assay relative to control
MDA-MB-468 = assay: Anticancer activity against human MDA-MB-468 cells assessed cell growth at 10 uM after 48 hrs by sulforhodamine B assay relative to control
HL-60(TB) = assay: Anticancer activity against human HL-60(TB) cells assessed cell growth at 10 uM after 48 hrs by sulforhodamine B assay relative to control
SK-MEL-28 = assay: Anticancer activity against human SK-MEL-28 cells assessed cell growth at 10 uM after 48 hrs by sulforhodamine B assay relative to control
K562 = assay: Anticancer activity against human K562 cells assessed cell growth at 10 uM after 48 hrs by sulforhodamine B assay relative to control
Malme-3M = assay: Anticancer activity against human MALME-3M cells assessed cell growth at 10 uM after 48 hrs by sulforhodamine B assay relative to control
SK-MEL-5 = assay: Anticancer activity against human SK-MEL-5 cells assessed cell growth at 10 uM after 48 hrs by sulforhodamine B assay relative to control
OVCAR-4 = assay: Anticancer activity against human OVCAR4 cells assessed cell growth at 10 uM after 48 hrs by sulforhodamine B assay relative to control
HCC 2998 = assay: Anticancer activity against human HCC2998 cells assessed cell growth at 10 uM after 48 hrs by sulforhodamine B assay relative to control
SK-MEL-2 = assay: Anticancer activity against human SK-MEL-2 cells assessed cell growth at 10 uM after 48 hrs by sulforhodamine B assay relative to control
CAKI-1 = assay: Anticancer activity against human Caki1 cells assessed cell growth at 10 uM after 48 hrs by sulforhodamine B assay relative to control
A498 = assay: Anticancer activity against human A498 cells assessed cell growth at 10 uM after 48 hrs by sulforhodamine B assay relative to control
UACC-62 = assay: Anticancer activity against human UACC62 cells assessed cell growth at 10 uM after 48 hrs by sulforhodamine B assay relative to control
NCI-H522 = assay: Anticancer activity against human NCI-H522 cells assessed cell growth at 10 uM after 48 hrs by sulforhodamine B assay relative to control
ACHN = assay: Anticancer activity against human ACHN cells assessed cell growth at 10 uM after 48 hrs by sulforhodamine B assay relative to control
CCRF-CEM = assay: Anticancer activity against human CCRF-CEM cells assessed cell growth at 10 uM after 48 hrs by sulforhodamine B assay relative to control
RXF 393 = assay: Anticancer activity against human RXF393 cells assessed cell growth at 10 uM after 48 hrs by sulforhodamine B assay relative to control
DU-145 = assay: Anticancer activity against human DU145 cells assessed cell growth at 10 uM after 48 hrs by sulforhodamine B assay relative to control
SNB-19 = assay: Anticancer activity against human SNB19 cells assessed cell growth at 10 uM after 48 hrs by sulforhodamine B assay relative to control

## Cn1cc[n+](CCO)c1.O=S(=O)([N-]S(=O)(=O)C(F)(F)F)C(F)(F)F
OVCAR-3
  Activity: 120.42%
IGROV-1
  Activity: 89%
NCI-H460
  Activity: 114.83%
SNB-75
  Activity: 79.94%
MCF7
  Activity: 105.11%
M14
  Activity: 102.65%
LOX IMVI
  Activity: 90.65%
BT-549
  Activity: 114.11%
SF-295
  Activity: 128.56%
MDA-MB-435
  Activity: 116.12%
HCT-116
  Activity: 100.02%
SF-539
  Activity: 99.95%
TK-10
  Activity: 125.47%
HCT-15
  Activity: 90.93%
UACC-257
  Activity: 93.35%
NCI-H322M
  Activity: 94.56%
MDA-MB-231
  Activity: 104.59%
NCI/ADR-RES
  Activity: 92.39%
[1]
  Activity: 72.12%
NCI-H226
  Activity: 101.7%
HOP-62
  Activity: 90.22%
OVCAR-8
  Activity: 93.89%
HOP-92
  Activity: 74.53%
SW-620
  Activity: 103.41%
T47D
  Activity: 100.5%
MDA-MB-468
  Activity: 108.29%
HL-60(TB)
  Activity: 37.14%
SK-MEL-28
  Activity: 125.37%
K562
  Activity: 80.37%
Malme-3M
  Activity: 121.81%
SK-MEL-5
  Activity: 100.98%
OVCAR-4
  Activity: 100.13%
HCC 2998
  Activity: 94.14%
SK-MEL-2
  Activity: 97.37%
CAKI-1
  Activity: 90.82%
A498
  Activity: 79.55%
UACC-62
  Activity: 100.11%
NCI-H522
  Activity: 90.32%
ACHN
  Activity: 97.02%
CCRF-CEM
  Activity: 72.37%
RXF 393
  Activity: 95.99%
DU-145
  Activity: 114.39%
SNB-19
  Activity: 93.36%

## COCC[n+]1ccn(C)c1.O=S(=O)([N-]S(=O)(=O)C(F)(F)F)C(F)(F)F
OVCAR-3
  Activity: 116.33%
IGROV-1
  Activity: 77.53%
NCI-H460
  Activity: 108.75%
SNB-75
  Activity: 80.79%
MCF7
  Activity: 101.56%
M14
  Activity: 110.1%
LOX IMVI
  Activity: 92.96%
BT-549
  Activity: 96.44%
SF-295
  Activity: 112.28%
MDA-MB-435
  Activity: 117.7%
HCT-116
  Activity: 102.12%
SF-539
  Activity: 94.09%
TK-10
  Activity: 123.77%
HCT-15
  Activity: 101.44%
UACC-257
  Activity: 100.25%
NCI-H322M
  Activity: 102.08%
MDA-MB-231
  Activity: 120.14%
NCI/ADR-RES
  Activity: 100.1%
[1]
  Activity: 62.23%
NCI-H226
  Activity: 100.3%
HOP-62
  Activity: 93.93%
OVCAR-8
  Activity: 96.68%
HOP-92
  Activity: 71.88%
SW-620
  Activity: 99.89%
T47D
  Activity: 100.59%
MDA-MB-468
  Activity: 106.36%
HL-60(TB)
  Activity: 103.77%
SK-MEL-28
  Activity: 106.63%
K562
  Activity: 109.67%
Malme-3M
  Activity: 125.61%
SK-MEL-5
  Activity: 100.51%
OVCAR-4
  Activity: 105.25%
HCC 2998
  Activity: 101.04%
SK-MEL-2
  Activity: 93.96%
CAKI-1
  Activity: 91.87%
A498
  Activity: 75.43%
UACC-62
  Activity: 105.79%
NCI-H522
  Activity: 84.3%
ACHN
  Activity: 96.19%
CCRF-CEM
  Activity: 55.66%
RXF 393
  Activity: 103.9%
DU-145
  Activity: 99.43%
SNB-19
  Activity: 93.88%

## CCCCCCCCCCCCCCCCCC[n+]1ccn(C)c1.FC(F)(F)C(F)(F)[P-](F)(F)(F)(C(F)(F)C(F)(F)F)C(F)(F)C(F)(F)F
OVCAR-3
  Activity: -53.86%
IGROV-1
  Activity: -30.94%
NCI-H460
  Activity: -53.73%
SNB-75
  Activity: -47.53%
MCF7
  Activity: 2.61%
M14
  Activity: -26.94%
LOX IMVI
  Activity: -25.56%
BT-549
  Activity: -56.11%
SF-295
  Activity: -26.82%
MDA-MB-435
  Activity: -52.89%
HCT-116
  Activity: -57.3%
SF-539
  Activity: -80.42%
TK-10
  Activity: -60.38%
HCT-15
  Activity: -23.91%
UACC-257
  Activity: -53.5%
NCI-H322M
  Activity: 5.98%
MDA-MB-231
  Activity: -73.64%
NCI/ADR-RES
  Activity: -50.87%
[1]
  Activity: 49.96%
NCI-H226
  Activity: -58.27%
HOP-62
  Activity: -79.75%
OVCAR-8
  Activity: -31.79%
HOP-92
  Activity: -39.5%
SW-620
  Activity: -25.6%
T47D
  Activity: 32.25%
MDA-MB-468
  Activity: 5.93%
HL-60(TB)
  Activity: 15.34%
SK-MEL-28
  Activity: -45.82%
K562
  Activity: 26.87%
Malme-3M
  Activity: -51.72%
SK-MEL-5
  Activity: -77.4%
OVCAR-4
  Activity: -18.12%
HCC 2998
  Activity: -80.57%
SK-MEL-2
  Activity: -54.7%
CAKI-1
  Activity: -71.63%
A498
  Activity: -47.4%
UACC-62
  Activity: -73.94%
NCI-H522
  Activity: -63.43%
ACHN
  Activity: -53.6%
CCRF-CEM
  Activity: 35.34%
RXF 393
  Activity: -44.46%
DU-145
  Activity: 7.06%
SNB-19
  Activity: -34.47%

## CCCCCCCCCCCCCCCCCC[n+]1ccn(C)c1.O=S(=O)([N-]S(=O)(=O)C(F)(F)F)C(F)(F)F
OVCAR-3
  Activity: -56.27%
IGROV-1
  Activity: -43.09%
NCI-H460
  Activity: -51.32%
SNB-75
  Activity: -55.13%
MCF7
  Activity: 6.12%
M14
  Activity: -30.74%
LOX IMVI
  Activity: -52.24%
BT-549
  Activity: -54.97%
SF-295
  Activity: -21.51%
MDA-MB-435
  Activity: -70.83%
HCT-116
  Activity: -51.46%
SF-539
  Activity: -82.94%
TK-10
  Activity: -72.43%
HCT-15
  Activity: -54.83%
UACC-257
  Activity: -47.9%
NCI-H322M
  Activity: 6.16%
MDA-MB-231
  Activity: -80.16%
NCI/ADR-RES
  Activity: -7.98%
[1]
  Activity: 75.58%
NCI-H226
  Activity: -61.74%
HOP-62
  Activity: -74.14%
OVCAR-8
  Activity: -37.35%
HOP-92
  Activity: -66.2%
SW-620
  Activity: -38.1%
T47D
  Activity: 16.98%
MDA-MB-468
  Activity: -20.4%
HL-60(TB)
  Activity: 2.22%
SK-MEL-28
  Activity: -52.79%
K562
  Activity: 17.9%
Malme-3M
  Activity: -49.87%
SK-MEL-5
  Activity: -74.13%
OVCAR-4
  Activity: -13.29%
HCC 2998
  Activity: -80.86%
SK-MEL-2
  Activity: -51.69%
CAKI-1
  Activity: -78.63%
A498
  Activity: -44.9%
UACC-62
  Activity: -82.14%
NCI-H522
  Activity: -74.3%
ACHN
  Activity: -43.53%
CCRF-CEM
  Activity: 67.84%
RXF 393
  Activity: -62.07%
DU-145
  Activity: -8.63%
SNB-19
  Activity: -68%
